How the values were obtained:
Assay in all cases: KINOMEscan competition binding
Conditions in all cases: compound 10.0 µM
TGFBR1 (human) = TGFBR1 (human) (UniProt P36897)
GSK3A (human) = GSK3A (human) (UniProt P49840)
TNNI3K (human) = TNNI3K (human) (UniProt Q59H18)
PIP5K1A (human) = PIP5K1A (human) (UniProt Q99755)
DYRK1B (human) = DYRK1B (human) (UniProt Q9Y463)
PDGFRB (human) = PDGFRB (human) (UniProt P09619)
CDC2L2 (human) = CDC2L2 (human) (UniProt Q9UQ88)
RAF1 (human) = RAF1 (human) (UniProt P04049)
[1] = tested on: KIT (human), P10721 [V559D/V654A]
FGR (human) = FGR (human) (UniProt P09769)
LATS1 (human) = LATS1 (human) (UniProt O95835)
MAPK15 (human) = MAPK15 (human) (UniProt Q8TD08)
CLK4 (human) = CLK4 (human) (UniProt Q9HAZ1)
NEK2 (human) = NEK2 (human) (UniProt P51955)
Chain of NEK2 (human) (P51955 whole entry, looked up): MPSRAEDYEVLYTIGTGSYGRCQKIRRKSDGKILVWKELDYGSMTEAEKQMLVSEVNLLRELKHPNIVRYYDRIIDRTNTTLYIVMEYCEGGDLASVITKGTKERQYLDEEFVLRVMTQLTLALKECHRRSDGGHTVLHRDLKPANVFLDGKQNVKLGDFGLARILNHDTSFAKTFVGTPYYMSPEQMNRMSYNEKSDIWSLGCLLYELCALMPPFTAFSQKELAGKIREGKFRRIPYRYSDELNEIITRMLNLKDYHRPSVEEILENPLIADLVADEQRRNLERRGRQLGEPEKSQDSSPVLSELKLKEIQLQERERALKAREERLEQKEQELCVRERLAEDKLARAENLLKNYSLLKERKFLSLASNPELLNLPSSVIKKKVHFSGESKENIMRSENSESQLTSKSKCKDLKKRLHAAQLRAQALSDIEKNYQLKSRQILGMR

DSTYK (human) = DSTYK (human) (UniProt Q6XUX3)
OXSR1 (human) = OXSR1 (human) (UniProt O95747)
PLK3 (human) = PLK3 (human) (UniProt Q9H4B4)
Chain of PLK3 (human) (Q9H4B4 whole entry, looked up): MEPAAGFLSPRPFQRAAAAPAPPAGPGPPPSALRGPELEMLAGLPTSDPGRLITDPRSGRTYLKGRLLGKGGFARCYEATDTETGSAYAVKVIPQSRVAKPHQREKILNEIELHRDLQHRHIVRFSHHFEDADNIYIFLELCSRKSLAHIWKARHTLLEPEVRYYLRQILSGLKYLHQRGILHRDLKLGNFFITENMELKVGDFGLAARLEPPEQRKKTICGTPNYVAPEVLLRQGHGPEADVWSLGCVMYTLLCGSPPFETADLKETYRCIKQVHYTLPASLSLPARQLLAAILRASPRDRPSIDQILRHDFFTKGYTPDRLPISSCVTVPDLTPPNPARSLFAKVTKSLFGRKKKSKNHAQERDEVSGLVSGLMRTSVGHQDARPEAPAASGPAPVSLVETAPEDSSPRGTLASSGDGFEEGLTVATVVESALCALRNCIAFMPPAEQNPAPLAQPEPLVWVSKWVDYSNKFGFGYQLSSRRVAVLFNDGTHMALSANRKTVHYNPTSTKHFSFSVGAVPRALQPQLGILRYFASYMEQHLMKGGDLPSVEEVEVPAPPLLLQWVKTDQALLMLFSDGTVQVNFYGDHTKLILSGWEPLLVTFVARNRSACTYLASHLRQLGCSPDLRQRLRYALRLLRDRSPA

MAP2K3 (human) = MAP2K3 (human) (UniProt P46734)
IRAK4 (human) = IRAK4 (human) (UniProt Q9NWZ3)
ICK (human) = ICK (human) (UniProt Q9UPZ9)
ACVR2A (human) = ACVR2A (human) (UniProt P27037)
TYRO3 (human) = TYRO3 (human) (UniProt Q06418)
PRKCD (human) = PRKCD (human) (UniProt Q05655)
RIOK1 (human) = RIOK1 (human) (UniProt Q9BRS2)
MAK (human) = MAK (human) (UniProt P20794)
MERTK (human) = MERTK (human) (UniProt Q12866)
EPHA8 (human) = EPHA8 (human) (UniProt P29322)
CDK9 (human) = CDK9 (human) (UniProt P50750)
Chain of CDK9 (human) (P50750 whole entry, looked up): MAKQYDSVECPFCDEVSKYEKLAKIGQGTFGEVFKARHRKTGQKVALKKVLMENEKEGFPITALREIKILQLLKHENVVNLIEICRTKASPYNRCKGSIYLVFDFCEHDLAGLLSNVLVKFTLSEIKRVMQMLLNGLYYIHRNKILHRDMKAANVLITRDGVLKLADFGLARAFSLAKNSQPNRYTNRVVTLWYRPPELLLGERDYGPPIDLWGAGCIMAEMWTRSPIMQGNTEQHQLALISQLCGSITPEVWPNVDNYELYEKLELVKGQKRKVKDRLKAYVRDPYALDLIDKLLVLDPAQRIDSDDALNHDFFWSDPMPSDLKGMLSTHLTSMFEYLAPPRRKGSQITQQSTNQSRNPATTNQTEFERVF

DDR1 (human) = DDR1 (human) (UniProt Q08345)
AURKA (human) = AURKA (human) (UniProt O14965)
PLK2 (human) = PLK2 (human) (UniProt Q9NYY3)
PIK3CA (human) = PIK3CA (human) (UniProt P42336)
LTK (human) = LTK (human) (UniProt P29376)
Chain of LTK (human) (P29376 whole entry, looked up): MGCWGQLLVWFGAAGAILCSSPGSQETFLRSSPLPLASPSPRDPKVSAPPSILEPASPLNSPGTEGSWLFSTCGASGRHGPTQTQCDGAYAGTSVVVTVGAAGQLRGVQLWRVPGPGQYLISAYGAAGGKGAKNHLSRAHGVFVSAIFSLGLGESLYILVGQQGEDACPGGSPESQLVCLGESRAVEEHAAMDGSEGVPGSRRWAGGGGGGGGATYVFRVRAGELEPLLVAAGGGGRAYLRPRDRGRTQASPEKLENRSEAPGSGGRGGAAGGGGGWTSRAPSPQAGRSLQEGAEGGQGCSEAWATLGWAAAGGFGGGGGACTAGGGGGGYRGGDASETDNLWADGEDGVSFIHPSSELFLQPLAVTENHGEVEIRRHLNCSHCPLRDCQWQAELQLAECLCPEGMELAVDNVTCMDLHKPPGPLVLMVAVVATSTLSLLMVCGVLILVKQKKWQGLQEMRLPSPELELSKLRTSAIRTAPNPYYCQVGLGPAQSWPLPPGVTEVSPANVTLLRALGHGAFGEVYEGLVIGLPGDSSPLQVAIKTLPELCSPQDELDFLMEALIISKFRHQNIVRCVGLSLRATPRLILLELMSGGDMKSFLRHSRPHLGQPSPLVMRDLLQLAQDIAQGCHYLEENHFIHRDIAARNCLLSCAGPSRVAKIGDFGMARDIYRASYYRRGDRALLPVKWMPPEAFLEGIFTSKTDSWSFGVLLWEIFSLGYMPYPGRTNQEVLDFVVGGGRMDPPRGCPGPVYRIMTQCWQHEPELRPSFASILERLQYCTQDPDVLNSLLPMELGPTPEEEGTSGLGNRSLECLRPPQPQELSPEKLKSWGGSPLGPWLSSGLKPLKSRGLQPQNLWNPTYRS

MAP3K13 (human) = MAP3K13 (human) (UniProt O43283)
CHEK2 (human) = CHEK2 (human) (UniProt O96017)
MAPK11 (human) = MAPK11 (human) (UniProt Q15759)
Chain of MAPK11 (human) (Q15759 whole entry, looked up): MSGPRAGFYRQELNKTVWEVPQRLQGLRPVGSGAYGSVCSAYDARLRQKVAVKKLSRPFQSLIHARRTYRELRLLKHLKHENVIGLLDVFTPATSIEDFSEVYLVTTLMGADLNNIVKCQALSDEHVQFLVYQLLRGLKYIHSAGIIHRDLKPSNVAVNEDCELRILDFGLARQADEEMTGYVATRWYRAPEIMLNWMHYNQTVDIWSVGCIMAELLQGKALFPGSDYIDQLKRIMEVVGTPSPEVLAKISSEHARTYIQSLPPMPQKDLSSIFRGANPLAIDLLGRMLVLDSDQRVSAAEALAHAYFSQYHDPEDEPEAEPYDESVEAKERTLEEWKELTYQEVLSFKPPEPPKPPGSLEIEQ

FGFR2 (human) = FGFR2 (human) (UniProt P21802)
SIK2 (human) = SIK2 (human) (UniProt Q9H0K1)
CAMK2B (human) = CAMK2B (human) (UniProt Q13554)
WEE2 (human) = WEE2 (human) (UniProt P0C1S8)

Chain of PDGFRB (human) (P09619 whole entry, looked up): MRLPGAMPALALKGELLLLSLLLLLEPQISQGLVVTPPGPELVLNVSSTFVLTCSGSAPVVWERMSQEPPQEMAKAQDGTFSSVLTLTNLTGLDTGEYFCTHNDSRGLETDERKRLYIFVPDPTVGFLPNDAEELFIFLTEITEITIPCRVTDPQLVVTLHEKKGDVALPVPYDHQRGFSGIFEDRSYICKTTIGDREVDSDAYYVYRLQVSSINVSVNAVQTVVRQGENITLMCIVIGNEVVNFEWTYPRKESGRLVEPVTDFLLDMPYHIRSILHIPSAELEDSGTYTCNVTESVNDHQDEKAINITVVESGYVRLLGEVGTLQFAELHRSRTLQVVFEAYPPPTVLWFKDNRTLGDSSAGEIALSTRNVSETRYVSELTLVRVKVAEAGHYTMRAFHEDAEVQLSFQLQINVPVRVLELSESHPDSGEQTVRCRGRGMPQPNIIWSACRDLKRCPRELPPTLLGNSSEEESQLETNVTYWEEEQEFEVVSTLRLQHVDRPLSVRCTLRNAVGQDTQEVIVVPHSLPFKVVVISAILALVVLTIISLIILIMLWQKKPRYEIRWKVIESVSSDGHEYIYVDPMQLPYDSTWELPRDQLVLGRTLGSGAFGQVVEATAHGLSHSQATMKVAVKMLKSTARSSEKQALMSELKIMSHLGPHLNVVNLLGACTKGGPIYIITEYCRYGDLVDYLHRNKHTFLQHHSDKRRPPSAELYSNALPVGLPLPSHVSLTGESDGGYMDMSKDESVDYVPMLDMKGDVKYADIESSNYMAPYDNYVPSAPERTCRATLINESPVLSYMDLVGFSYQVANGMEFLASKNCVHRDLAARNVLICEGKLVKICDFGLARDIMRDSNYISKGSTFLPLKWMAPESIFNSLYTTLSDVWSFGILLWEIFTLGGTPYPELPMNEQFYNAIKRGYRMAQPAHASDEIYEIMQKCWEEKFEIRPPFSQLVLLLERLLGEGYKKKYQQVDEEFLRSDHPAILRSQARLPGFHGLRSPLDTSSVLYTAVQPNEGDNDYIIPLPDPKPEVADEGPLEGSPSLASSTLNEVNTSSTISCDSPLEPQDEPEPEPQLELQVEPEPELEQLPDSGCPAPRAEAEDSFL
Chain of TGFBR1 (human) (P36897 whole entry, looked up): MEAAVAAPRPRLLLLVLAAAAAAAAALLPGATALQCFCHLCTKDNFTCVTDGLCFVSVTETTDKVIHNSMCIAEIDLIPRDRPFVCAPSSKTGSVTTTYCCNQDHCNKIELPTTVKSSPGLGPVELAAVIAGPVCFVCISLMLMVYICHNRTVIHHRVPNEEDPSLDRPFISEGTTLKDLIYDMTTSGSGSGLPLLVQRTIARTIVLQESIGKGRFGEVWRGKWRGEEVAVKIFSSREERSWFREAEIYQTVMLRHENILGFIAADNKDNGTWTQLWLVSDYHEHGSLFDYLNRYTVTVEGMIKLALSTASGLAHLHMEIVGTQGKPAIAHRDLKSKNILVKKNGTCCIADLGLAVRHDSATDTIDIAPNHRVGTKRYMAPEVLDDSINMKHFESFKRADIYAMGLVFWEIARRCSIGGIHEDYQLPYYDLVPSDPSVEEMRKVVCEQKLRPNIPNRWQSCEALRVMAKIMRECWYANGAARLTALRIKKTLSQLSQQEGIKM
Chain of PIP5K1A (human) (Q99755 whole entry, looked up): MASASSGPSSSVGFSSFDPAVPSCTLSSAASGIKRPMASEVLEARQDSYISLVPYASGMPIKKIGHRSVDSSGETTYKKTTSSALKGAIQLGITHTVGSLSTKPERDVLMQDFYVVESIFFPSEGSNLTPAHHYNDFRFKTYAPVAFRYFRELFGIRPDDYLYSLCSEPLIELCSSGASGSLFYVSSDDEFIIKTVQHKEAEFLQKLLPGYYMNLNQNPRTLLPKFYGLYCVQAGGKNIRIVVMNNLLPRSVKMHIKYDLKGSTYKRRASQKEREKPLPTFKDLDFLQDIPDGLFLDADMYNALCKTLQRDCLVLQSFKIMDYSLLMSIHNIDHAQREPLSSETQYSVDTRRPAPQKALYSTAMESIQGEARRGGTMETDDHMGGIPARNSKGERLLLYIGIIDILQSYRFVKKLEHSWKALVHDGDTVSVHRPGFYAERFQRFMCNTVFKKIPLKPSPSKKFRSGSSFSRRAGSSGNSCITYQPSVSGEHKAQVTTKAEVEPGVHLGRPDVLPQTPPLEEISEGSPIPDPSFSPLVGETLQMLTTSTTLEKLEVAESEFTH

SMILES	kinase still bound, per cent of control (TGFBR1 (human))	kinase still bound, per cent of control (GSK3A (human))	kinase still bound, per cent of control (TNNI3K (human))	kinase still bound, per cent of control (PIP5K1A (human))	kinase still bound, per cent of control (DYRK1B (human))	kinase still bound, per cent of control (PDGFRB (human))	kinase still bound, per cent of control (CDC2L2 (human))	kinase still bound, per cent of control (RAF1 (human))	kinase still bound, per cent of control [1]	kinase still bound, per cent of control (FGR (human))	kinase still bound, per cent of control (LATS1 (human))	kinase still bound, per cent of control (MAPK15 (human))	kinase still bound, per cent of control (CLK4 (human))	kinase still bound, per cent of control (NEK2 (human))	kinase still bound, per cent of control (DSTYK (human))	kinase still bound, per cent of control (OXSR1 (human))	kinase still bound, per cent of control (PLK3 (human))	kinase still bound, per cent of control (MAP2K3 (human))	kinase still bound, per cent of control (IRAK4 (human))	kinase still bound, per cent of control (ICK (human))	other results
C=CC(=O)Nc1cc(-n2c(=O)ccc3cnc4ccc(-c5cn[nH]c5)cc4c32)ccc1C	83%	13%	100%	44%	1.8%	5.6%	100%	100%	100%	57%	100%	24%	3%	100%	70%	79%	99%	8.6%	36%	67%	kinase still bound, per cent of control (ACVR2A (human)): 76%; kinase still bound, per cent of control (TYRO3 (human)): 100%; kinase still bound, per cent of control (PRKCD (human)): 80%; kinase still bound, per cent of control (RIOK1 (human)): 53%; kinase still bound, per cent of control (MAK (human)): 94%; kinase still bound, per cent of control (MERTK (human)): 100%; kinase still bound, per cent of control (EPHA8 (human)): 96%; kinase still bound, per cent of control (CDK9 (human)): 100%; kinase still bound, per cent of control (DDR1 (human)): 67%; kinase still bound, per cent of control (AURKA (human)): 63%; kinase still bound, per cent of control (PLK2 (human)): 89%; kinase still bound, per cent of control (PIK3CA (human)): 24%; kinase still bound, per cent of control (LTK (human)): 100%; kinase still bound, per cent of control (MAP3K13 (human)): 84%; kinase still bound, per cent of control (CHEK2 (human)): 87%; kinase still bound, per cent of control (MAPK11 (human)): 89%; kinase still bound, per cent of control (FGFR2 (human)): 94%; kinase still bound, per cent of control (SIK2 (human)): 62%; kinase still bound, per cent of control (CAMK2B (human)): 44%; kinase still bound, per cent of control (WEE2 (human)): 95%
CCN1CCN(C(=O)Cc2ccc(Nc3ncc(F)c(Nc4ccc(C(=O)Nc5ccccc5Cl)cc4)n3)cc2)CC1	57%	88%	24%	0%	46%	0.15%	95%	81%	84%	43%	100%	54%	28%	87%	71%	100%	82%	57%	100%	100%	kinase still bound, per cent of control (ACVR2A (human)): 2.2%; kinase still bound, per cent of control (TYRO3 (human)): 79%; kinase still bound, per cent of control (PRKCD (human)): 60%; kinase still bound, per cent of control (RIOK1 (human)): 0%; kinase still bound, per cent of control (MAK (human)): 100%; kinase still bound, per cent of control (MERTK (human)): 2%; kinase still bound, per cent of control (EPHA8 (human)): 63%; kinase still bound, per cent of control (CDK9 (human)): 73%; kinase still bound, per cent of control (DDR1 (human)): 22%; kinase still bound, per cent of control (AURKA (human)): 0.5%; kinase still bound, per cent of control (PLK2 (human)): 88%; kinase still bound, per cent of control (PIK3CA (human)): 83%; kinase still bound, per cent of control (LTK (human)): 32%; kinase still bound, per cent of control (MAP3K13 (human)): 44%; kinase still bound, per cent of control (CHEK2 (human)): 70%; kinase still bound, per cent of control (MAPK11 (human)): 81%; kinase still bound, per cent of control (FGFR2 (human)): 25%; kinase still bound, per cent of control (SIK2 (human)): 20%; kinase still bound, per cent of control (CAMK2B (human)): 72%; kinase still bound, per cent of control (WEE2 (human)): 12%
